Laboratory results as given in patent publication EP0998939A1, “Chalcone plant extracts for use in therapy” (THE SCHOOL OF PHARMACY, UNIVERSITY OF LONDON, priority 1998, dated 2000).

Experiments:
Blood platelets = experiment: Inhibition of blood platelet aggregation (TPA or ADP induced) in platelet rich plasma; assay type: cell-based, human; conditions: for Percentage Inhibition of ADP Induced Aggregation: ADP 6.4 µg; for Percentage Inhibition of TPA Induced Aggregation: TPA 0.5µg
Description: Blood platelets release inflammatory mediators in response to an external stimulus, which affect the proliferation of the cells, which is an important part of the disease psoriasis. • 1. Male human blood was collected via venipucture of the forearm directly in to anticoagulant buffer, from healthy donors who had denied any medication for two weeks, and centrifuged at 1000rpm for 20 minutes at room temperature. • 2. The supernatant was employed as platelet rich plasma (PRP). Platelet poor plasma (PPP) was obtained by centrifuging 1ml of PRP at 11,000 rpm for 10 minutes. • 3. Inhibition of platelet aggregation was tested by adding 2.5µl of a known concentration (containing 10µg or 50µg) of the test compound to a 500µl sample ofPRP for one minute. An aggregation agent was then added as a solution to the sample in a 2.5µl quantity (containing TPA 0.5,µg or ADP 6.4 µg). Aggregation was measured using a dual channel aggregometer . • 4. Aggregation was taken as the % change in light transmission compared to the maximum change produced by TPA or ADP plus the control solution. PRP was used as a standard for zero light transmission and PP for 100% light transmission.

Female CD1 mice = experiment: Topical chemical erythema: inhibition of TPA induced erythema on the mouse ear; assay type: in vivo; conditions: applied to the right ear in 5µl, 20 minutes prior to TPA (0.1µg/5µl)
Description: Ref. Williamson E.M. and Evans F. (1981), Inhibition of erythema induced by proinflammatory esters of 12-deoxyphorbol. Acta Pharmacol. Toxicol.,48, 47-52
Female CD1 mice, weighing approximately 20g were used. • 2. Test plant extracts as produced in Example 1 were applied externally to the right ear of each mouse, at predetermined concentrations in 5µl quantities, 20 minutes prior to the application of the irritant compound 12-O-tetradecanoylphorbal-13-acetate (TPA)(0.1µg/5µl). • 3. A […] response was indicated by redness and inflammation of the ear. • 4. Observations were recorded at 2,3,4,6,7, and 24 hours after the application of TPA. Maximum inflammation caused by TPA alone occurs at 6 hours after the application of TPA.
Erythema of the mouse ear is the simplest experiment to perform as mice have translucent ears in which reddening is easily visible. Quantification is subjective, however the erythema can be described as pronounced, slight or absent. • Isoliquiritigenin ED50 (dose required to inhibit erythema in at least 50% of the animals) 20-50,µg • Licochalcone B ED50 5-10µg • Echinatin ED50 5-10µg

platelet aggregation = conditions: in rats, compared with aspirin; cited from earlier work
[1] = tested on: swiss 3T3 mouse fibroblast cells; experiment: Cell culture 3[H] thymidine assay, Example 6.3 inhibition of TPA induced proliferation (24 hours prior incubation with compound); assay type: cell-based; conditions: compound 24 hours before compound + 0.5µM TPA
Description: Cells used were swiss 3T3 mouse fibroblast cells • 1. 6 x 24 well plates were required for each experiment. • 2. Cells were removed from the standard tissue culture flask using a 1% solution of EDTA and resuspended in 10 ml of media and pipetted off into a falcon tube. • 3. The cells were then spun for 5 minutes at about 2,000rpm. • 4. The existing media was removed, and the cells again resuspended in 10ml of 10% foetal calf serum (FCS) and vortexed. • 5. The 10ml of suspension was then added to 140ml of media and mixed in a sterile jar. 1ml of the media cell suspension was then placed into each well and the plates incubated until confluent, three days .
• 1. [PCl]Cells were dosed with the test compounds (as specified below) 2 days prior to the addition of 3 [H]thymidine. The cells could only be dosed with a 0.5% solution, 5µl test solution in 1ml cellsuspension i.e. 5µl in 1ml, (TPA - 0.5µM). • 2. 0.5µl of 3[H] thymidine was added per well, therefore 72µl was added to 144µl of media (1%F.C.S.) to dose the corresponding six plates. • 3. 100µl of the media was taken to measure the measure the radioactive dose […], and added to 4ml of scintillation fluid. • 4. The radioactive media was then transferred to sterile specimen tubes and dosed with the test compounds before adding to the cells. • 5. After four hours ofbeing pulsed with radiolabelled thymidine (0.5µCi/ml) the media was removed and washed down the sink. • 6. The cells were washed twice with ice cold phosphate buffered saline (PBS), 0.5ml per well, and incubated for 30 min using ice cold 5% trichloroacetic acid (TCA) ( 1ml) per well at room temperature. • 8. The TCA was then removed and another 1ml of 5% TCA was added for 5 minutes. After the TCA was removed and 0.3NaOH and 0.1% sodium dodecyl sulphate added to each well for 30 minutes (1ml/well). • 9. The contents of each well was added to scintillation vials containing 4ml of scintillation fluid and each sample counted for four minutes using a scintillation counter. Three different assays were carried out using this protocol; • 6.1. Cytotoxicity testing of the compounds. After 48 hours of incubation and the cells were confluent a predetermined quantity of the test compounds was added to the cells. • 6.2. Inhibition of TPA induced proliferation. After 48 hours a preditermined quantity concentration of the test compounds was added to the cells as well as 0.5um of TPA. […] Inhibition of TPA induced proliferation. After 48 hours a predetermined quantity concentration of the test compounds was added to the cells for 24 hours, at 72 hours the media was changed again to contain both test compound and 0.5µM of the TPA. The objective of this experiment was to observe whether the prior incubation with the test compound had any effect on the TPA induced proliferation of the cells.

[2] = Conc. 10µg test compound in 500µl PRP
[3] = Conc. 50µg test compound in 500µl PRP

## O=C(/C=C/c1ccc(O)cc1)c1ccc(O)cc1O [Isoliquiritigenin, isoliquiritigenin]
Blood platelets; [2]
  Percentage Inhibition of ADP Induced Aggregation: 20%
  Percentage Inhibition of TPA Induced Aggregation: 3%
Blood platelets; [3]
  Percentage Inhibition of ADP Induced Aggregation: 26%
  Percentage Inhibition of TPA Induced Aggregation: 13%
Blood platelets; comparison among the three chalcones, especially ADP induced aggregation
  inhibiting blood platelet aggregation, result in words: most active
Female CD1 mice
  ED50 (dose required to inhibit erythema in at least 50% of the animals): 20 to 50 µg
Platelet aggregation
  level of inhibition of platelet aggregation: comparable to aspirin
[1]; Concentration 0.01 µg
  Percentage Inhibition of 3T3 Swiss Fibroblast Growth, Example 6.3: 31%
[1]; Concentration 0.1 µg
  Percentage Inhibition of 3T3 Swiss Fibroblast Growth, Example 6.3: 39%
[1]; Concentration 1 µg
  Percentage Inhibition of 3T3 Swiss Fibroblast Growth, Example 6.3: 50%
[1]; Concentration 10 µg
  Percentage Inhibition of 3T3 Swiss Fibroblast Growth, Example 6.3: 47%
[1]; Concentration 20 µg
  Percentage Inhibition of 3T3 Swiss Fibroblast Growth, Example 6.3: 61%
